Laboratory results published in patent US5541182A, “Benzodiazepine aryl urea derivatives” (Yamanouchi Pharmaceutical Co., Ltd., priority 1990, dated 1996).

Legend:
[1] = tested on: CCK-A receptor vs CCK-B receptor; assay: Selectivity for CCK-B receptor by comparison with binding to CCK-A receptor (rat pancreas membrane, [3H]L-364,718); set-up: species or system SD rat; details: rat pancreas (CCK-A) vs rat brain (CCK-B)
Procedure: Measurement of selectivity for CCK-B receptor by comparison with the binding to CCK-A receptor in rats:
The pancreas of an SD rat was homogenized in 20-fold volume of 50 mM Tris-HCl buffer (pH 7.7) by the use of a Polytrone-type homogenizer, the homogenate was twice centrifuged for 10 minutes at 50000 g by the use of an ultracentrifuge, the precipitate thus obtained was suspended in 40-fold volume of 50 mM Tris-HCl buffer (containing 0.2% BSA, 5 mM MgCl2, 0.1 mg/ml bacitracin and 5 mM DTT; pH 7.7), and the suspension was freeze-stored at -80° C., thus giving membrane preparation.
The membrane preparation was then molten at room temperature, diluted ten times with the buffer and incubated at 37° C. for 30 minutes in the presence of [^3 H]L-364, 718, and B/F separation was performed by suction filtration. Nonspecific binding was determined in the presence of 1 μM L-364, 718. The amount of labelled ligand bound to the receptor was measured by the use of a liquid scintillation counter; Ki (CCK-A) values were determined from the binding inhibition curve of the test sample, with the maximum amount of labelled ligand bound to the receptor being set as 100%.
The Ki (CCK-A)/Ki (CCK-B) value of the present compound can be calculated from the above test. The higher the value of Ki (CCK-A)/Ki (CCK-B), the higher will be the selectivity to the CCK-B receptor.

[2] = tested on: gastric-acid secretion caused by the stimulus of pentagastrin; assay: Depression of gastric-acid secretion caused by the stimulus of pentagastrin; format: in vivo; details: Rattus norvegicus, iv; SD rats, urethane anesthetized, i.v. test drug, pentagastrin 15 μg/kg/hr i.v.
Text: Measurement of the action of depressing the gastric-acid secretion caused by the stimulus of pentagastrin:
A cannula was inserted into the trachea of a rat anesthetized with urethane (intraperitoneally administered in an amount of 1.25 g/kg), its abdominal wall was incised to expose the gastric and duodenal portions, and a polyethylene cannula was set at the anterior stomach after ligation of the cardia. The duodenum was then subjected to slight section, a polyethylene cannula was inserted from the incised portion toward the stomach, and the pylorus was ligated to fix the cannula.
Physiological saline (with pH adjusted to 7.0) was flown from the anterior stomach toward the pylorus at a speed of 3 ml/min, and the gastric-acid secretion was measured by continuous titration of the flown saline by the use of a pH-stat (AUT-201; product of Toa Electronics, Ltd.). The continuous titration was carried out by using 25 mM caustic soda solution until the pH reached 7.0, and the result was expressed as the amount of gastric acid secreted for every ten minutes (μEq /10 min.). Pentagastrin was intravenously administered at a rate of 15 μg/kg/hr. The secretion of gastric acid increased upon administration of pentagastrin, reaching the maximum level after 60 minutes and stably maintaining this level after that. […]

CCK-B receptor = target: T1, CCK-B receptor (Rattus norvegicus, UniProt P30553); assay: Binding action upon CCK-B receptor ([125I]BH.CCK-8, rat whole brain membrane); set-up: species or system SD rat; details: [125I]BH.CCK-8, 25° C., 120 min, pH 6.5
T1 construct: the whole brain was immediately excised from each of the cut heads and homogenized; from tissue; host or cells: SD rat whole brain, membrane preparation
T1 sequence (P30553 whole entry): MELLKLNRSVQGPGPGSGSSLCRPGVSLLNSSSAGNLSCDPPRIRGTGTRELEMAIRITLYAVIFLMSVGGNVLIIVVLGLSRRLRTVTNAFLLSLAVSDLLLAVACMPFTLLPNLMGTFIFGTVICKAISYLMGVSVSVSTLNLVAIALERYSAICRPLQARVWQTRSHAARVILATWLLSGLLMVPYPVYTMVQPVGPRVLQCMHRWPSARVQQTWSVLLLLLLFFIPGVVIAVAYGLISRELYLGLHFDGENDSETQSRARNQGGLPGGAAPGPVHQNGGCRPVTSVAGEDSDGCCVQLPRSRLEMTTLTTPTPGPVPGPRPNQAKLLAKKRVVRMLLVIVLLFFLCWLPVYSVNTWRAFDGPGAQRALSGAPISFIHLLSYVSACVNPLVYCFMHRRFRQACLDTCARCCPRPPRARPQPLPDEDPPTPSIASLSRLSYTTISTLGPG
Procedure: Measurement of the binding action upon CCK-B receptor:
About 100 heads of SD rats were decapitated without anesthesia, the whole brain was immediately excised from each of the cut heads and homogenized in 10-fold volume of 0.32M aqueous solution of sucrose by the use of a Teflon-coated homogenizer, the homogenate thus obtained was centrifuged for ten minutes at 900 g by the use of a cooled centrifuge, and the supernatant was further centrifuged for 15 minutes at 11500 g. The precipitate thus obtained was dispersed in 50 mM Tris-HCl buffer (pH 7.4) containing 0.08% Triton X-100, this suspension was allowed to stand for 30 minutes and again centrifuged for 15 minutes at 11500 g, the precipitate thus obtained was washed twice with 5 mM Tris-HCl buffer and twice with 50 mM Tris-HCl buffer in that order through centrifugal separation, the washed precipitate was suspended in 50 mM Tris-HCl buffer, and the suspension thus obtained was freeze-stored at -80° C., thus giving membrane preparation.
The membrane preparation was molten at room temperature, diluted with 10 mM HEPES buffer (containing 130 mM NaCl, 5 mM MgCl2, 1 mM EGTA and 0.25 mg/ml bacitracin; pH 6.5) and incubated at 25° C. for 120 minutes in the presence of [^125 I]BH.cndot.CCK-8, and B/F separation was performed by suction filtration. Nonspecific binding was determined in the presence of 1 μM CCK-8. The amount of labelled ligand bound to the receptor was measured by the use of a […]; Ki (CCK-B) values were determined from the binding inhibition curve of the test sample, with the maximum amount of labelled ligand bound to the receptor being set as 100%.

benzodiazepine receptor = assay: Binding to the benzodiazepine receptor; details: even at 10 μM

| Compound | Ki (CCK-A)/Ki (CCK-B), selectivity for the CCK-B receptor [1] [fold] | ED50 [2] [µmol/kg] | Ki (CCK-B receptor) [nM] | binding action to the benzodiazepine receptor (in words) (benzodiazepine receptor) |
| --- | --- | --- | --- | --- |
| Cc1cccc(NC(=O)NC2N=C(c3ccccc3)c3ccccc3N(CC(=O)c3ccccc3C)C2=O)c1 (stereo not shown) [Example 2, 1-[2,3-dihydro-1-(2'-methylphenacyl)-2-oxo-5-phenyl-1H-1,4-benzodiazepin-3-yl]-3-(3-tolyl)urea] | 1733 | 0.03 | 0.15 | – |
| Cc1ccc(C(=O)CN2C(=O)C(NC(=O)Nc3cccc(C)c3)N=C(c3ccccc3)c3ccccc32)cc1 (stereo not shown) [Example 7, 1-[2,3-Dihydro-1-(4'-methylphenacyl)-2-oxo-5-phenyl-1H-1,4-benzodiazepin-3-yl]-3-(3-tolyl)urea] | 864 | – | 0.22 | – |
| Cc1cccc(NC(=O)NC2N=C(c3ccccc3)c3ccccc3N(CC(=O)c3sccc3C)C2=O)c1 (stereo not shown) [Example 13, 1-[2,3-Dihydro-1-(3-methyl-2-thenoyl)methyl-2-oxo-5-phenyl-1H-1,4-benzodiazepin-3-yl]-3-(3-tolyl)urea] | – | – | 0.16 | – |
| Cc1cccc(NC(=O)N[C@@H]2N=C(c3ccccc3)c3ccccc3N(CC(=O)c3ccccc3C)C2=O)c1 [Example 16, (R)-1-[2,3-dihydro-1-(2'-methylphenacyl)-2-oxo-5-phenyl-1H-1,4-benzodiazepin-3-yl]-3-(3-tolyl)urea] | – | – | – | no binding action at all |
